Experimental data as given in patent US20160058829A1, “ANTI-FIBROTIC PEPTIDES AND THEIR USE IN METHODS FOR TREATING DISEASES AND DISORDERS CHARACTERIZED BY FIBROSIS” (Thrasos Innovation, Inc., priority 2011, published 2016).
Entries after “also recorded” stand apart in the source; their conditions may differ. Like-named read-outs stand apart in the source and are kept apart here. Blank lines part the entries; values can stand above or below the molecule they belong to. Positions of bridges follow the written chain, without caps; N, C: chain ends.

How the values were obtained:
[1] = system: Streptozotocin-induced diabetic CD-1 mice; assay: STZ-induced diabetic nephropathy study (THR-123 month 5-6, BMP-7 month 1-6); type: in vivo; details: for net increase in FSP1 (mesenchymal tissue) at six months versus normal animals: BMP7 five months, SEQ ID NO: 1 final month, untreated 27 and 29 times; for interstitial fibrosis (collagen accumulation, Masson's trichrome): THR-123 5 mg/kg/day oral; for increase in BUN level relative to normal animals: untreated 85% at 5 months, 94% at 6 months
Protocol: FIG. 17 depicts the STZ experimental protocol behind the study discussed in Example 2. […] Mice were given a single intraperitoneal injection of Streptozotocin (STZ) in sodium citrate buffer (pH 4.5) at a dose of 200 mg/kg. Blood glucose was measured by tail vein sampling using the glucose oxidase enzymatic test (Medisense glucometer, Abbott Laboratories, Bedford, Mass.). Diabetic nephropathy was evaluated in groups of mice killed at the end of 5 or 6 months (vehicle control groups) or 6 months (THR123 or BMP-7 group) after STZ injection. A group of STZ injected mice received oral administration of Thrasos compound daily at a dose of 5 mg/kg body weight for a month, from month 5 to month 6 after STZ injection. BMP-7 was administered intraperitoneally at a dose of 300 μg/kg body weight from month 1 to month 6.
Analysis of fibrosis in the H&E and Masson's trichrome stain in FIG. 18 through 22 from the mouse STZ study outlined in FIG. 17. Using the same image color analysis method used above to quantitate E-cadherin fluorescence for the in vitro EMT experiments, the images were quantitated, and the results shown in FIG. 23.
Eight weeks old male CD-1 mice are used all the diabetic experiment. Mice are performed single intraperitoneal (i.p.) injection of streptozotocin (STZ: 200 mg/Kg). Induction of diabetes is defined as blood glucose level >16 mM by 2 weeks after STZ injection. One month after induction of diabetes, mice were separated into three groups (BMP7, vehicle and non-treatment) and BMP7 (i.p. 300 μg/Kg/every other day) or vehicle injection was initiated. Five months after induction of diabetes, THR-123 (p.o. 5 mg/Kg/day) administration is initiated in diabetic mice. Mice are sacrificed at 5 (before the treatment) or 6 months after induction of diabetes.

[2] = target: T1, Alk-6 (Homo sapiens, UniProt O00238); assay: Radio-ligand (125I-BMP7) receptor binding assay, Alk-6 ECD
T1 construct: Highly purified extra-cellular domain (ECD) of Alk-3 or Alk-6 (expressed as a fusion protein with Fc domain) served as a receptor
T1 sequence (O00238 14-126 limits assumed): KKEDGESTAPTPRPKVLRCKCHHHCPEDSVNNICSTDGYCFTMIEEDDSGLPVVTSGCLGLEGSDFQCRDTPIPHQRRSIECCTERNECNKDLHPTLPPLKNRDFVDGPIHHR
Description: FIG. 45A-FIG. 45G Pharmacokinetics of THR-123. FIG. 45A. BMP7 structure figure with the residue weights resulting from the analysis mapped on to it. FIG. 45B, FIG. 45C. Radio-ligand receptor binding assays specific for individual type I receptors, Alk-3 (FIG. 45B) and Alk-6 (FIG. 45C). Highly purified extra-cellular domain (ECD) of Alk-3 or Alk-6 (expressed as a fusion protein with Fc domain) served as a receptor. In each assay purified receptor was immobilized on each well and peptide analog or unlabeled BMP7 was added, followed by ^125I-labeled BMP7. Radiolabeled BMP7 complex was counted in an auto-gamma counter. Results were expressed as the mean±s.e.m. […] Concentration of THR-123 in systemic circulation of Wistar rats following iv injection of THR-123 (^125I-Tyr) via the tail vein determined by total radioactivity measurement. […] Six hours after intravenous administration of ^125I labeled-THR-123 in rats at a dose of 6.25 mg/kg-body weight, tissues were harvested and analyzed by automatic gamma well counter. […] Radioactivity of orally administrated ^125I labeled-THR-123 at a dose of 5 mg/kg body weight was localized in the kidney between 1 and 6 hours after administration and peaked at around 3 hours.
First, specific affinity of the extra cellular domains (ECD) of the several type I receptors of BMPs to THR-123 was analyzed. […]

[3] = THR-123 month 5-6, BMP-7 month 1-6
[4] = THR-123 month 5-6, BMP-7 month 1-6, listed as THR-123

Molecule: (H)-CYFDDSSNVLCKKYRS-(OH) (H-CYFDDSSNVLCKKYRS-OH; disulfide 1-11; SMILES CC(C)C[C@@H]1NC(=O)[C@H](C(C)C)NC(=O)[C@H](CC(N)=O)NC(=O)[C@H](CO)NC(=O)[C@H](CO)NC(=O)[C@H](CC(=O)O)NC(=O)[C@H](CC(=O)O)NC(=O)[C@H](Cc2ccccc2)NC(=O)[C@H](Cc2ccc(O)cc2)NC(=O)[C@@H](N)CSSC[C@@H](C(=O)N[C@@H](CCCCN)C(=O)N[C@@H](CCCCN)C(=O)N[C@@H](Cc2ccc(O)cc2)C(=O)N[C@@H](CCCNC(=N)N)C(=O)N[C@@H](CO)C(=O)O)NC1=O) [SEQ ID NO: 1]
- net increase in FSP1 (mesenchymal tissue) at six months versus normal animals [1]: 2 times
- interstitial fibrosis (collagen accumulation, Masson's trichrome) ([1]; month 5 to 6, listed as THR123, 5 mg/kg/day): reduced renal fibrosis
- interstitial fibrosis (collagen accumulation, Masson's trichrome) ([1]; month 5 to 6, listed as THR-123, 5 mg/kg/day): lower than it was at 5 months; also recorded: markedly reduced
- glomerular surface area [1, 3]: little effect
- relative interstitial volume ([1]; THR-123 month 5-6, BMP-7 month 1-6, listed as THR123): decreased interstitial volume
- BUN levels / renal function [1, 4]: reversed renal dysfunction; also recorded: dropped to those of control animals
- damaged tubules / tubular atrophy [1, 4]: inhibited tubular atrophy and interstitial volume increase; also recorded: reversed tubular atrophy and interstitial volume expansion; also recorded: markedly reduced
- mesangial matrix expansion [1, 4]: inhibited mesangium expansion; also recorded: reversed mesangial matrix expansion; also recorded: significantly reduced
- relative interstitial volume [1, 4]: markedly reduced
- EMT program (FSP1 and E-cadherin double positive tubules) ([1]; mouse, in vivo): inhibited EMT program
- macrophage infiltration (Mac-1) ([1]; mouse, in vivo): significantly reduced the infiltration by macrophages
- phospho-Smad1/5 accumulation in kidney ([1]; mouse, in vivo): increased accumulation of phospho-Smad1/5
- FSP-1 marker concentration relative to levels at 5 and 6 months ([1]; one month treatment, month 5 to 6): less than 1/10
- increase in mesangial matrix at 6 months ([1]; untreated 64% at 5 months, 104% at 6 months): 37%
- increase in BUN level relative to normal animals [1]: 17%
- increase in BUN level relative to normal animals ([1]; listed as THR-123): 12%
- binding to ALK6 (competition with 125I-BMP7) ([2]; listed as THR-123): absolutely no competition; also recorded: does not bind

- binding to ALK6 (competition with 125I-BMP7) [2]: binds
B1: BMP-7: bone morphogenetic protein-7; recombinant human BMP7, positive control (protein)
chain: STGSKQRSQNRSKTPKNQEALRMANVAENSSSDQRQACKKHELYVSFRDLGWQDWIIAPEGYAAYYCEGECAFPLNSYMNATNHAIVQTLVHFINPETVPKPCCAPTQLNAISVLYFDDSSNVILKKYRNMVVRACGCH
- net increase in FSP1 (mesenchymal tissue) at six months versus normal animals [1]: 3 times
- BUN levels / renal function [1, 3]: reversed renal dysfunction; also recorded: dropped to those of control animals
- damaged tubules / tubular atrophy [1, 3]: inhibited tubular atrophy and interstitial volume increase
- mesangial matrix expansion [1, 3]: inhibited mesangium expansion; also recorded: significantly reduced
- relative interstitial volume [1, 3]: markedly reduced
- damaged tubules / tubular atrophy ([1]; THR-123 month 5-6, BMP-7 month 1-6, listed as BMP): halts the progression
- mesangial matrix expansion ([1]; THR-123 month 5-6, BMP-7 month 1-6, listed as BMP7): unaffected
- EMT program (FSP1 and E-cadherin double positive tubules) ([1]; mouse, in vivo): inhibited EMT program
- macrophage infiltration (Mac-1) ([1]; mouse, in vivo): significantly reduced the infiltration by macrophages
- increase in BUN level relative to normal animals [1]: 2%
